{
  "source": "patent US10799456B2",
  "about": "“Multiple drug lipid nanoparticle composition and related methods for extended drug levels in blood and lymph tissue” (priority 2015, dated 2020)",
  "key": {"HIV-2(287) replication": {"system": "HIV-2(287) replication", "assay": "Antiviral activity in HIV-infected CEM-174 cells", "format": "cell-based", "conditions": "Human immunodeficiency virus 2, CEM174, LPV:RTV:PMPA fixed 1:1:0.5 (m/m/m), LNP form; read-out: EC50 (nM), Drug-lipid nanoparticles with 3 drug combination", "experimental": "The antiviral activity of the three-drug combination in soluble or LNP form was evaluated in HIV-infected CEM-174 cells as described previously. […] J Acquir Immune Defic Syndr 2003; 34(4):387-397, incorporated herein by reference in its entirety. […] The dose of drugs added to cells represents the sum of bound and unbound drugs in these anti-HIV LNP formulations."}, "[1]": {"assay": "Drug incorporation/encapsulation (association) efficiency of multi-drug LNPs by dialysis", "format": "physicochemical", "conditions": "for Degree of incorporation (% total): anti-HIV LNPs LPV/RTV/PMPA", "experimental": "The anti-HIV LNP formulations contain both unbound drug and drugs bound to lipid nanoparticles. […] Drugs were quantified by LC-MS/MS using acetonitrile precipitation. Encapsulation efficiency (EE) was calculated as follows: […]"}, "in vivo [2]": {"assay": "in vivo", "conditions": "for concentration at 24 h: sc, Mean drug concentration, Plasma", "source_text": "Four young adult male macaques (Macaca nemestrina, 2.9-4.0 kg) were housed and cared for by the Washington National Primate Research Center (WaNPRC) under an approved Institutional Animal Care and Use Committee protocol.\nThe vehicle for the first suspension was bicarbonate-buffered saline with 3% ethanol and 0.2% bovine serum albumin. The vehicle for the second suspension was bicarbonate-buffered saline with 8% DMSO and 0.1% Tween 20.\n(§1) Four macaques were divided into two treatment groups (two animals per group). […] Data were normalized to the anti-HIV LNP dose for comparative analysis.\n(§2) Plasma was removed, PBMCs were isolated by the density gradient method, and cells were aliquoted into pellets of approximately 2 million PBMCs each. An inguinal lymph node was surgically excised 24 h after drug administration (n=2 per treatment), LNMCs were isolated by passage through a 100-lm nylon cell strainer (Corning, Tewksbury, Mass.), and cells were aliquoted into pellets of approximately 1-2 million LNMCs each. All samples were stored at −80° C. prior to drug analysis.\n(§3) Plasma concentrations of all three drugs were analyzed simultaneously by liquid chromatography-tandem mass spectrometry using a recently published method. […] Antimicrob Agents Chemother 2014; 58(5):2675-2680, incorporated herein by reference in its entirety. PBMC and LNMC pellets were lysed using 200 μl water/methanol (1:1 v/v), sonicated for 10 min, and then extracted and analyzed using the same method as cited above. Intracellular concentrations were converted to ng/ml with the assumption that each cell has a volume of 4×10^−9 ml. Alberts B, Johnson A, Lewis J, et al. Molecular Biology of the Cell, 4 ed. Garland Science, New York, 2002, incorporated herein by reference in its entirety.\nData were analyzed by paired two-tailed Student's t-test with p<0.05 considered statistically significant."}, "in vivo [3]": {"assay": "in vivo", "conditions": "male, Macaca nemestrina, in vivo, sc, Mean drug concentration, Lymph node", "experimental": "as §1, §2, §3"}, "[4]": {"assay": "Storage stability at 4° C. (fraction of drug bound, dialysis)", "format": "physicochemical", "experimental": "To test the long-term stability, the multi-drug nanoparticles were stored under refrigeration at 4° C. and were tested for stability after a prolonged period. The lipid-drug combination particles are stable as determined by both particle size and degree of drug association (Table 12). […] Even the hydrophilic compound, which readily diffuses out of most lipid particles in a number of hours, loses a remarkably low fraction of the associated drug after 8, 12, and 17 months in storage. This exceptional stability provides a substantial advantage for translation to clinical application."}, "[5]": {"assay": "pH dependent drug release from LPV/RTV/TFV lipid nanoparticles", "format": "physicochemical", "conditions": "2 hrs", "source_text": "As described above, we established the pH-dependent association of various drugs to lipids at neutral pH and the consequent release of the drugs when pH is lowered. Also described above, this stable integration and pH-dependent release of drugs from the multiple drug lipid nanoparticles was consistent for both lipophilic and water soluble compounds. To confirm the pH dependent release of the individual drugs from the multiple drug combination lipid nanoparticles, LPV/RTV/PMPA(TFV) lipid nanoparticles, assembled as described above, were subjected to different pH environments, and the free drug component of the supernatant was assayed to determine the amount of release. […] When a lipid nanoparticle is localized in tissues and taken up by HIV-infected cells, the incorporated antiretroviral drugs are then released inside the cell organelles (such as endosome and lysosomes) when the pH is lowered."}, "[6]": {"assay": "% Drug association to particles by assembly method", "format": "physicochemical", "source_text": "Select one or two drugs hydrophilic and water soluble (Class 2) drugs listed in Table 19 (for example, tenofovir and/or emtricitabine and/or lamivudine). • 3. Select the excipient combination (for example, 9 parts DSPC and 1 part PEG-DSPE). • 4. Prepare a single-phase miscible solvent that enables full solubilization of the chosen water-insoluble Class 1 drugs and water soluble Class 2 drugs plus the excipients from step 3. Examples include CHCl3:Methanol:Water (65:35:4); CHCl3:Ethanol:Water (65:35:4); CHCl3:Propanol:Water (65:35:4); and CHCl3:Hexanol:Water (65:35:4). • 5. The components in Steps 1, 2 and 3 are solubilized with the miscible solvent in step 4. • 6. The drugs (steps 1 and 2) as well as excipients (step 3) and the miscible solvent (step 4) are dried under reduced pressure with assistance of a combination of heat, reduced pressure and/or aerosolization to provide for uniformity and efficiency of drying. • 7. The dehydrated composition is heated above gel-to-liquid phase transition temperature of the excipient mixture (e.g., 50° C.). • 8. A buffered saline solution is prepared and the temperature is equilibrated to the same temperature as dehydrated composition. • 9. The buffered saline solution and dehydrated composition are gradually combined and maintained at the defined (e.g., 50° C.) for 3 hr. • 10. The resulting hydrated multi-drug lipid nanoparticles are size-reduced by sheering or forcing through small orifice or pressurized filter apparatus while maintaining at the defined temperature (in liquid phase of lipidic excipients)."}, "[7]": {"assay": "Sucrose gradient test of drug association", "format": "physicochemical", "conditions": "5-20% sucrose gradient, 200,000 g, 4 hr; LPV/RTV/TFV LNPs, single miscible solvent method", "experimental": "The sucrose gradient test to determine this characteristic is described in Example 5. Briefly, the sucrose gradient test comprises subjecting the multi-drug lipid nanoparticle to a continuous 5%-20% sucrose gradient and applying a centrifugal force of 200,000 g for 4 hours. The unassociated small molecules separate and float to the less dense fractions, whereas the associated small molecule agents sediment with the stable lipid nanoparticles in the denser gradients. The relative amounts of the unassociated and associated small molecule reagents can be quantified and, thus, compared.\nThe sucrose gradient test centrifugation test separates any unbound drugs from multi-drug lipid nanoparticles by sedimentation of lipid-drug particles through a sucrose gradient with increasing density to strip off unbound drugs. Under these conditions, all the free drugs in solution remained at (or floated to) the top of gradient where the sucrose density is low. Specifically, using a continuous gradient of 5-20% (with 65% cushion) sucrose, the lipid-drug particle mixture was subjected to centrifugal force at 200,000 g for 4 hr. Through this process, we were able to separate bound and unbound drug fractions. […] It is noted that the observed percentage of multi drug lipid nanoparticle association for the other two drugs (LPV and RTV) are consistent with data in Table 11."}, "[8]": {"conditions": "cited from earlier work"}, "HIV-1": {"system": "HIV-1", "assay": "microbe, parasite or virus in culture", "conditions": "Human immunodeficiency virus 1, read-out: EC50 in LNP form"}, "[9]": {"conditions": "male, Macaca nemestrina, in vivo"}},
  "data": [
    {"smiles": "Cc1cccc(C)c1OCC(=O)N[C@@H](Cc1ccccc1)[C@@H](O)C[C@H](Cc1ccccc1)NC(=O)[C@H](C(C)C)N1CCCNC1=O", "note": "[Lopinavir (LPV), Lopinavir]", "values": [
      {"measurement": "EC50", "setting": "HIV-2(287) replication", "value": "3 ± 0.8", "unit": "nM"},
      {"measurement": "% particle-bound", "setting": "[1]; Combination 1, lipid:LPV:RTV:TFV 115:10:5:15, large scale", "value": "(86.4 ± 0.9) %"},
      {"measurement": "% particle-bound", "setting": "[1]; Combination 3, lipid:LPV:EFV:TFV 200:26.6:20:40, large scale", "value": "(76.6) %"},
      {"measurement": "Degree of incorporation (% total)", "setting": "[1]; clinical scale (15-40 ml)", "value": "93.6 ± 5.5", "unit": "%"},
      {"measurement": "Degree of incorporation (% total)", "setting": "[1]; laboratory scale (0.1-0.4 ml)", "value": "74.2 ± 7.3", "unit": "%"},
      {"measurement": "AUC 0-8 (%) of total, LNP", "setting": "in vivo [2]; [9]", "value": 9.9, "unit": "%"},
      {"measurement": "AUC 8-168 (%) of total, LNP", "setting": "in vivo [2]; [9]", "value": 90.1, "unit": "%"},
      {"measurement": "AUC fraction (% of total) Anti-HIV LNP 24-168 h", "setting": "in vivo [2]; [9]", "value": "62.8 ± 9.9", "unit": "%"},
      {"measurement": "concentration at 24 h", "setting": "in vivo [2]; male, Macaca nemestrina, in vivo, Anti-HIV LNP treatment", "value": "596 ± 123", "unit": "ng/mL"},
      {"measurement": "concentration at 24 h", "setting": "in vivo [2]; male, Macaca nemestrina, in vivo, Free drug treatment", "value": "24.5 ± 26.3", "unit": "ng/mL"},
      {"measurement": "AUC Free drug 0-168 h", "setting": "in vivo [2]; plasma, sc 25/14.3/17.1 mg/kg LPV/RTV/PMPA, four animals", "value": "3830 ± 4040", "unit": "ng·h/mL"},
      {"measurement": "concentration at 24 h", "setting": "in vivo [3]; Anti-HIV LNP treatment", "value": "1212 ± 9.8", "unit": "ng/mL"},
      {"measurement": "concentration at 24 h", "setting": "in vivo [3]; Free drug treatment", "value": 0, "unit": "ng/mL"},
      {"measurement": "Fraction of drug bound in multi-drug nanoparticles (% total)", "setting": "[4]; 0 months", "value": "82.70 ± 7.00", "unit": "%"},
      {"measurement": "Fraction of drug bound in multi-drug nanoparticles (% total)", "setting": "[4]; 8 months", "value": "95.33 ± 7.53", "unit": "%"},
      {"measurement": "Fraction of drug bound in multi-drug nanoparticles (% total)", "setting": "[4]; 12 months", "value": "94.62 ± 11.86", "unit": "%"},
      {"measurement": "Fraction of drug bound in multi-drug nanoparticles (% total)", "setting": "[4]; 17 months, one batch", "value": 92.89, "unit": "%"},
      {"measurement": "% Drug released from anti-HIV nanoparticles", "setting": "[5]; pH 4.0, 37° C.", "value": "93.7 ± 1.2", "unit": "%"},
      {"measurement": "% Drug released from anti-HIV nanoparticles", "setting": "[5]; pH 5.5, 37° C.", "value": "28.9 ± 1.4", "unit": "%"},
      {"measurement": "% Drug released from anti-HIV nanoparticles", "setting": "[5]; pH 6.5, 37° C.", "value": "3.9 ± 2.7", "unit": "%"},
      {"measurement": "% Drug released from anti-HIV nanoparticles", "setting": "[5]; pH 7.4, 37° C.", "value": "1 ± 0.6", "unit": "%"},
      {"measurement": "% Drug Association to Particles, LNPs from mixture of dual solvent method", "setting": "[6]", "value": "80-100%"},
      {"measurement": "% Drug Association to Particles, LNPs from single, miscible solvent method", "setting": "[6]", "value": "90-100%"},
      {"measurement": "% association to lipid-drug particles (bound fraction)", "setting": "[7]", "value": 81.8, "unit": "%"},
      {"measurement": "Water solubility @ 25° C.", "setting": "[8]", "value": 7.7, "unit": "ng/mL"},
      {"measurement": "EC50", "setting": "HIV-1", "value": "30 ± 0.8", "unit": "nM"}
    ]}
  ]
}
